Source: US8765666B2, “Adenovirus dodecahedron particles for delivery of pharmaceutical agents” (Instytut Bio chemii i Biofizki PAN, priority 2009, dated 2014)
Counter-ions that a name gives are not always drawn.

System: HeLa cells
Experiment: MTT cytotoxicity test
Details: results not shown
Protocol: In the test, the ability of live cells to reduce the soluble yellow tetrazolium salt (MTT) to blue formazan crystals is used. […] After 3 hours, foetal bovine serum was added to a final concentration of 10%. After various incubation times at 37° C., the incubation medium was removed and 100 μL EMEM containing 0.5 mg/mL MTT (Sigma) was added. The plates were incubated according to the manufacturer's instructions; optical density measurements were carried out using an HTi reader (Biotek, VT Winooski, USA). The number of live cells was calculated according to the protocol (Mosmann, 1983).

Cc1c(N)nc(C(CC(N)=O)NCC(N)C(N)=O)nc1C(=O)NC(C(=O)NC(C)C(O)C(C)C(=O)NC(C(=O)NCCc1nc(-c2nc(C(=O)NCCCNCCCCN)cs2)cs1)C(C)O)C(OC1OC(CO)C(O)C(O)C1OC1OC(CO)C(O)C(OC(N)=O)C1O)c1c[nH]cn1 (stereo not shown) [BLM, Bleomycin A5 hydrochloride]
free BLM concentration giving cell mortality similar to Dd-BLM: 8 µM
